The text below walks through data of article PMC4094369 (Biochemical and biophysical research communications, 2013).

Where “and” joins values, the source holds several entries; their conditions need not be identical. Identical values can stand only once. Entries after “also recorded” stand apart in the source; their conditions may differ. Counter-ions that a name gives are not always drawn. Like-named read-outs stand apart in the source and are kept apart here. A value given as a limit tells only on which side of the number the result lay.

For one data set, the target named is T1, glutaminase (Homo sapiens, UniProt O94925).
T1 sequence (O94925 124-669 limits assumed): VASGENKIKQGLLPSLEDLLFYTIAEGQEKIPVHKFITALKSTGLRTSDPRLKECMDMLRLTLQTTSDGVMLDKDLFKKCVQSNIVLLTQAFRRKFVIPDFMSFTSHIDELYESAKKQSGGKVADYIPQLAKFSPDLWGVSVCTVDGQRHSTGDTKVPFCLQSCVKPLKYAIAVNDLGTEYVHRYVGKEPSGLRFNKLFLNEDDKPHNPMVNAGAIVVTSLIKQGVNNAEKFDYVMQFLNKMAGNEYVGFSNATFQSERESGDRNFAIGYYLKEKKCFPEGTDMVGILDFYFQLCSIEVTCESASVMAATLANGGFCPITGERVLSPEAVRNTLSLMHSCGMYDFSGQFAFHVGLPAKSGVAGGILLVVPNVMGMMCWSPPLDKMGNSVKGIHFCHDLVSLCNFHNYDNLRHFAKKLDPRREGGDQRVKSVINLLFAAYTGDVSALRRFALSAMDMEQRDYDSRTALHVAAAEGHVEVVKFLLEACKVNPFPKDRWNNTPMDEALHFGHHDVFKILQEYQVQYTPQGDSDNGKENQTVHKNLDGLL
Nature of the data set: Glutaminase activity of analogs. It is filed as biochemical. The conditions noted are these: for retention of biological (glutaminase) activity: analogs of chelerythrine, in words.

The target in data set [1] is T2, glutaminase (hKGAΔ1) (Homo sapiens, UniProt O94925).
T2 sequence (O94925 124-669 limits assumed): T1 sequence (O94925 124-669 limits assumed)
In kind it is biochemical. The conditions noted are these: for Ki: Ki (competition studies), presence of glutamine; for Mode of inhibition: competition studies, average of 2–4 determinations.

Data set [2] addresses T3, mouse liver glutaminase (mLGA) (Mus musculus, UniProt Q571F8).
T3 sequence (Q571F8 15-602): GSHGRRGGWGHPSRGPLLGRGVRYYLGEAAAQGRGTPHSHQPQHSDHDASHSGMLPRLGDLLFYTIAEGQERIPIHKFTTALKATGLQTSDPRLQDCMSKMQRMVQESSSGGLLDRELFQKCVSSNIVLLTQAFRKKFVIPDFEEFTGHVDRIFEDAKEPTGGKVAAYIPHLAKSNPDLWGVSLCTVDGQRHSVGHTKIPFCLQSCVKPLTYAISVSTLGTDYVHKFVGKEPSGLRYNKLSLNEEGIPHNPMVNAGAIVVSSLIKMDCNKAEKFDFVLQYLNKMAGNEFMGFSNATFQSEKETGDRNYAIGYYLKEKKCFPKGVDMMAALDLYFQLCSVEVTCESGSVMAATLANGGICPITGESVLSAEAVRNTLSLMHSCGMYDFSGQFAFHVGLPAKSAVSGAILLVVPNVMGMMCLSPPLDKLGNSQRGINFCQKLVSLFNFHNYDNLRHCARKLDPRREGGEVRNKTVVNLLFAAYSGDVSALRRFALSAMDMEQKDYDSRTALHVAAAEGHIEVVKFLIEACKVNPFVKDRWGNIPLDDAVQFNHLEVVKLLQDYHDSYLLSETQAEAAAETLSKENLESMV
Nature of the data set: Glutaminase activity, Amplex UltraRed fluorescent assay. In kind it is biochemical. The conditions noted are these: for activity against GLS2 (mLGA) relative to GLS1 isoforms: fold less activity against GLS2 than GLS1 (hKGAΔ1, mGAC).

For data set [3], the target named is T4, mouse c-type glutaminase (mGAC) (Mus musculus, UniProt D3Z7P3).
T4 sequence (D3Z7P3 55-603 isoform D3Z7P3-2 limits assumed): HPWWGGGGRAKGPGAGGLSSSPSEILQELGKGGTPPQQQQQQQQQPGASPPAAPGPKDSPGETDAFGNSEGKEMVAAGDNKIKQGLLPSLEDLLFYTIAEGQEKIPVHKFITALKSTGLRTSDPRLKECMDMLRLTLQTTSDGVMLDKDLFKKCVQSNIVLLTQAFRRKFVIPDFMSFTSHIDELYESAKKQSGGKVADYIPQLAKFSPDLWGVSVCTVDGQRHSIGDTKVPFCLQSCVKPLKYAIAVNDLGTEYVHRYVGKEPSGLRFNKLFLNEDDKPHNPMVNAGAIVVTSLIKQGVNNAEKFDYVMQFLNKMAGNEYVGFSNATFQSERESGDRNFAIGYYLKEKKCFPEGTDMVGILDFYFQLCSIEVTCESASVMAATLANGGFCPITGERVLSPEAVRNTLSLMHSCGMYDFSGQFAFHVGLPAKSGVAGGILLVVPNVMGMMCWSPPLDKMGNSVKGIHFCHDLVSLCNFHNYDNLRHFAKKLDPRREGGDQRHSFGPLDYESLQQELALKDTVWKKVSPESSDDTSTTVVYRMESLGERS
The description is as above. In kind it is biochemical.

The target of data set [4] is T2, glutaminase (hKGAΔ1). Nature of the data set: Inactivation studies: time-dependent inhibition of glutaminase. In kind it is biochemical. The conditions noted are these: for KI (inactivation): read-out: Ki (inactivation studies); for time- and concentration-dependence of glutaminase inactivation: in words.
A further data set in a line: Solubility. Conditions: in words, no data shown. It is filed as physicochemical.
The conditions of data set [5]: in vivo; cited from earlier work.
A further data set has as its target T5, hKGAΔ1 (GLS1) (Homo sapiens, UniProt O94925).
T5 sequence (O94925 124-669 limits assumed): T1 sequence (O94925 124-669 limits assumed)
The data set is described as follows: Glutaminase activity, Amplex UltraRed fluorescent assay. It is filed as biochemical.

The mark [6] stands for this setting: read-out: Avg. IC50, Table 6, analogs of apomorphine.

In turn, `O=C1c2ccccc2CN1c1ccccc1` [2-Phenyl isoindolin-1-one] displayed an IC50 on glutaminase greater than 100 µM.

For `O=c1c2ccccc2on1-c1ccccc1` [2-Phenylbenzo[d] isoxazol-3(2H)-one], the IC50 at glutaminase is 20 µM.

On to `O=c1c2ccccc2sn1-c1ccccc1` [2-Phenylbenzo[d]isothiazol-3(2H)-one], for which, at glutaminase, the half-inhibitory concentration (IC50) came to 0.02 µM.

On to `CN1CCc2cccc3c2C1Cc1ccc(O)c(O)c1-3` (stereo not shown) [Apomorphine hydrochloride, 5,6,6a,7-tetrahydro-6-methyl-4H-dibenzo[de,g] quinoline-10,11-diol], for which the Ki on glutaminase (hKGAΔ1) [1] was determined as 2 µM. The Mode of inhibition entry at glutaminase (hKGAΔ1) [1] is listed as “Competitive”; at glutaminase (hKGAΔ1) [1] (listed as apomorphine) it was “competitive inhibition”. The half-maximal inhibitory concentration (IC50) in data set [2] stood at 0.3 µM; in data set [3], 1 µM; against glutaminase, 0.6 µM. Further, the kinact/KI on glutaminase (hKGAΔ1) [4] was 13200 M⁻¹ s⁻¹. Also, the kinact on glutaminase (hKGAΔ1) [4] (rate constant of inactivation) was 5.56e-05 s⁻¹. Also, the KI (inactivation) at glutaminase (hKGAΔ1) [4] came out at 0.004 µM. Further, the “solubility relative to BPTES” value in “Solubility” is given as “more soluble than BPTES”.

Consider `O=C(Cc1ccccc1)Nc1nnc(CCSCCc2nnc(NC(=O)Cc3ccccc3)s2)s1` [BPTES, bis-2-(5-phenylacetimido-1,2,4-thiadiazol-2-yl)ethyl sulfide], for which, in data set [5], the bioavailability result is reported as “low bioavailability”.

For `COc1ccc2cc3[n+](cc2c1OC)CCc1cc2c(cc1-3)OCO2` [Berberine chloride, 5,6-dihydro-9,10-dimethoxy-benzo[g]-[1,3] benzodioxolo[5,6-a]quinolizinium], on glutaminase, the 50% inhibitory concentration (IC50) was greater than 100 µM and the “retention of biological (glutaminase) activity” value (shortened to “retention of biological”) is recorded as “did not maintain activity”.

Turning to `COc1ccc2c(c[n+](C)c3c4cc5c(cc4ccc23)OCO5)c1OC` [Chelerythrine chloride, 1,2-dimethoxy-N-methyl[1,3]benzodioxolo[5,6-c]phenanthridinium], the IC50 at hKGAΔ1 (GLS1) amounted to 0.03 µM; in data set [2] it was 0.3 µM; in data set [3], 0.07 µM; against glutaminase it was 0.03 µM. Besides, the Mode of inhibition entry on glutaminase (hKGAΔ1) [1] is given as “Competitive”; on glutaminase (hKGAΔ1) [1] (listed as chelerythrine) it was “competitive inhibition”. In data set [2], the “activity against GLS2 (mLGA) relative to GLS1 isoforms” value was 5 to 10 fold. At glutaminase (hKGAΔ1) [4], the inactivation efficiency (kinact/KI) stood at 29200 M⁻¹ s⁻¹. The kinact at glutaminase (hKGAΔ1) [4] (rate constant of inactivation) is 0.000958 s⁻¹. Besides, the KI (inactivation) at glutaminase (hKGAΔ1) [4] is 0.03 µM. The “solubility relative to BPTES” value in “Solubility” is recorded as “more soluble than BPTES”.

Consider `[N-]=[N+]=CC(=O)CC[C@H](N)C(=O)O` [DON, 6-diazo-5-oxo-L-norleucine], for which, at glutaminase (hKGAΔ1) [1], the Mode of inhibition result is given as “Time-dependent”. In addition, at glutaminase (hKGAΔ1) [4], the inactivation efficiency (kinact/KI) amounted to 2.53 M⁻¹ s⁻¹; the “time- and concentration-dependence of glutaminase inactivation” value was “both concentration and time of incubation dependent; also recorded: time-dependent and irreversible”; the KI (inactivation) is 6 µM. Further, the kinact at glutaminase (hKGAΔ1) [4] (rate constant of inactivation) was 1.39e-05 s⁻¹.

For `O=c1c2ccccc2[se]n1-c1ccccc1` [Ebselen, 2-phenyl-1,2-benzisoselenazol-3[2H]-one], on hKGAΔ1 (GLS1), the IC50 was found to be 0.008 µM. For the same compound, on glutaminase (hKGAΔ1) [1], the Ki is ~0.015 µM and 0.015 µM; the Mode of inhibition entry was “Mixed non-competitive”. In addition, the “decrease in Vmax” value on glutaminase (hKGAΔ1) [1] (as the concentration of inhibitor was increased) amounted to 6 fold. For the same compound, on glutaminase (hKGAΔ1) [1] (listed as ebselen), the Mode of inhibition result is “mixed non-competitive inhibition”. In data set [2], the IC50 turned out to be 0.1 µM and the “activity against GLS2 (mLGA) relative to GLS1 isoforms” value fell in the range of 5 to 10 fold. Half-maximal inhibition in data set [3] (IC50) required 0.02 µM. Further, at glutaminase (hKGAΔ1) [4], the kinact was 0.000367 s⁻¹; the kinact/KI came to 25200 M⁻¹ s⁻¹; the “time- and concentration-dependence of glutaminase inactivation” value was “dependent on both concentration and time of incubation”; the KI (inactivation) is ~0.014 µM and 0.014 µM. In addition, the kinact at glutaminase (hKGAΔ1) [4] (rate constant of inactivation) is 0.000364 s⁻¹. In addition, the “solubility relative to BPTES” value in “Solubility” is reported as “more soluble than BPTES”.

With `COc1cc2c[n+](C)c3c4cc5c(cc4ccc3c2cc1OC)OCO5` [Nitidine chloride, 2,3-dimethoxy-N-methyl[1,3]benzodioxolo[5,6-c]phenanthridinium], the IC50 on glutaminase worked out at 9 µM. In addition, the “retention of biological” value at glutaminase (listed as nitidine) was “retained”; at glutaminase (listed as nitidine chloride) it was “retained biological activity”.

In the case of `c1cc2c(cnc3c4cc5c(cc4ccc23)OCO5)c2c1OCO2` [Norsanguinarine chloride, [1,3]-benzodioxolo[5,6-c]-1,3-dioxolo[4,5-i]phenanthridine], at glutaminase, the IC50 is greater than 100 µM and the “retention of biological” value is listed as “biological activity was lost”.

Consider `C[n+]1cc2c3c(ccc2c2ccc4cc5c(cc4c21)OCO5)OCO3` [Sanguinarine chloride, 13-methyl-[1,3]-benzodioxolo[5,6-c]-1,3-dioxolo[4,5-i]phenanthridinium], for which, on glutaminase, inhibition was half-maximal at 0.1 µM (IC50). Further, the “retention of biological” value is “retained” at glutaminase (listed as sanguinarine) and “retained biological activity” on glutaminase (listed as sanguinarine chloride).

Consider `CN1CCc2cccc3c2[C@@H]1Cc1ccc(O)c(O)c1-3` [S–Apomorphine hydrochloride], for which the IC50 on glutaminase (setting [6]) was determined as 0.4 µM.

As to R(−)-Apocodeine hydrochloride, the “loss of activity relative to apomorphine” value at glutaminase (hydroxyl replaced with methoxy) was determined as 10 fold. At glutaminase (setting [6]), the IC50 was determined as 4 µM.

Consider R(−)-Propylnorapomorphine hydrochloride, for which the IC50 on glutaminase (setting [6]) came out at 0.9 µM.
